Source: ChEMBL document CHEMBL6103656, “Discovery of BT-114143, a Novel and Potent Phosphoric Acid-Containing Small-Molecule Plasminogen Activation Inhibitor for Hyperfibrinolysis” (J Med Chem, 2025)
Active and inactive are the calls of the source. The calls are words filed in the database; no cut-off is given here.

Key:
Blood = assay: Ratio of compound IC50 to TXA IC50 in anti-fibrinolytic activity in healthy human fresh blood by plasma clot lysis; assay type: functional
[1] = Half life in Sprague-Dawley rat at 2 mg/kg, IM measured upto 24 hrs by LC-MS/MS analysis; assay type: ADME, organism-based; conditions: in vivo
Homo sapiens = species on record: Homo sapiens; assay: (§1) Inhibition of Plasminogen (unknown origin) binding to fibrin (unknown origin) interaction by surface plasmon resonance (SPR) analysis
[2] = as §1; set-up: species or system Homo sapiens
[3] = Toxicity in beagle dog assessed as no observed adverse effect level (NOAEL) treated for 14 days; set-up: species or system Canis lupus familiaris; conditions: in vivo, time 14 day
[4] = AUC (0 to infinity) in Sprague-Dawley rat at 2 mg/kg, iv measured upto 24 hrs by LC-MS/MS analysis; assay type: ADME, organism-based; conditions: in vivo
[5] = Toxicity in Sprague-Dawley rat assessed as no observed adverse effect level (NOAEL) treated for 14 days; conditions: in vivo, time 14 day
[6] = Volume of distribution at steady state in Sprague-Dawley rat at 2 mg/kg, iv measured upto 24 hrs by LC-MS/MS analysis; assay type: ADME, organism-based; conditions: in vivo, read-out: Vdss
[7] = Half life in beagle dog at 2 mg/kg, iv measured upto 24 hrs by LC-MS/MS analysis; assay type: ADME, organism-based, Canis lupus familiaris; conditions: in vivo
Plasminogen [8] = target: T1, Plasminogen (Homo sapiens, UniProt P00747); assay: Binding affinity to biotinylated Plasminogen (unknown origin) assessed as dissociation constant by surface plasmon resonance (SPR) analysis
[9] = Maximum tolerated dose in Sprague-Dawley rat treated intravenously twice a day; assay type: toxicity, organism-based; conditions: in vivo, route iv
[10] = Half life in Sprague-Dawley rat at 2 mg/kg, iv measured upto 24 hrs by LC-MS/MS analysis; assay type: ADME, organism-based; conditions: in vivo
[11] = target: Tissue-type plasminogen activator (Rattus norvegicus) (UniProt P19637); assay: Inhibition of recombinant tissue plasminogen activator (rt-PA)-induced fibrinolysis in Sprague-Dawley rat fresh whole blood assessed as thrombus dissolution within 30 mins after reaching maximum amplitude (LY30) at > 3 uM by thromboelastography analysis; assay type: functional, tissue-based
[12] = Volume of distribution at steady state in beagle dog at 2 mg/kg, iv measured upto 24 hrs by LC-MS/MS analysis; assay type: ADME, organism-based, Canis lupus familiaris; conditions: in vivo
[13] = AUC (0 to infinity) in beagle dog at 2 mg/kg, iv measured upto 24 hrs by LC-MS/MS analysis; assay type: ADME, organism-based, Canis lupus familiaris; conditions: in vivo
Rattus norvegicus [14] = assay: Hemostatic effect in rt-PA enhanced Sprague-Dawley rat tail bleeding model assessed as reduction in tail bleeding time at 5 mg/kg infused into right jugular vein; assay type: functional, organism-based; conditions: route iv
[15] = target: Voltage-gated inwardly rectifying potassium channel KCNH2 (Homo sapiens, UniProt Q12809); assay: Inhibition of hERG; assay type: toxicity
[16] = Toxicity in CHO cells assessed as mutagenic effect by chromosome aberration test; assay type: cell-based, Cricetulus griseus; conditions: chinese hamster
[17] = target: Glycine receptor (alpha-1/beta) (Homo sapiens, UniProt P23415+P48167); assay: Inhibition of glycine receptor alpha1beta (unknown origin); assay type: toxicity
[18] = Toxicity in rat peripheral blood cells assessed as clastogenic effect by micronucleus test; assay type: cell-based; conditions: erythrocyte
Rattus norvegicus [19] = assay: Hemostatic effect in rt-PA enhanced Sprague-Dawley rat tail bleeding model assessed as reduction in tail bleeding time at 40 mg/kg infused into right jugular vein; assay type: functional, organism-based; conditions: route iv
[20] = target: Tissue-type plasminogen activator (Homo sapiens) (UniProt P00750); assay: Inhibition of recombinant human tissue plasminogen activator (rt-PA)-induced fibrinolysis in human fresh whole blood assessed as thrombus dissolution within 30 mins after reaching maximum amplitude (LY30) by thromboelastography analysis; assay type: functional, tissue-based
[21] = Maximum tolerated dose in beagle dog treated intravenously twice a day; assay type: toxicity, organism-based, Canis lupus familiaris; conditions: in vivo, route iv
Plasminogen [22] = target: T1, Plasminogen; assay: Inhibition of plasminogen activation assessed as inhibition of recombinant human tissue plasminogen activator (rt-PA)-induced clot lysis measured after clot lysis pre-incubated for 15 mins by buffer clot lysis assay
[23] = Half life in beagle dog at 2 mg/kg, IM measured upto 24 hrs by LC-MS/MS analysis; assay type: ADME, organism-based, Canis lupus familiaris; conditions: in vivo
[24] = AUC (0 to infinity) in Sprague-Dawley rat at 2 mg/kg, IM measured upto 24 hrs by LC-MS/MS analysis; assay type: ADME, organism-based; conditions: in vivo
[25] = target: T2, GABA-A receptor; alpha-1/beta-2/gamma-2 (Homo sapiens, UniProt P14867+P18507+P47870); assay: Inhibition of GABA-A receptor alpha1beta2gamma2 (unknown origin); assay type: toxicity
T2 sequence (P14867 whole entry): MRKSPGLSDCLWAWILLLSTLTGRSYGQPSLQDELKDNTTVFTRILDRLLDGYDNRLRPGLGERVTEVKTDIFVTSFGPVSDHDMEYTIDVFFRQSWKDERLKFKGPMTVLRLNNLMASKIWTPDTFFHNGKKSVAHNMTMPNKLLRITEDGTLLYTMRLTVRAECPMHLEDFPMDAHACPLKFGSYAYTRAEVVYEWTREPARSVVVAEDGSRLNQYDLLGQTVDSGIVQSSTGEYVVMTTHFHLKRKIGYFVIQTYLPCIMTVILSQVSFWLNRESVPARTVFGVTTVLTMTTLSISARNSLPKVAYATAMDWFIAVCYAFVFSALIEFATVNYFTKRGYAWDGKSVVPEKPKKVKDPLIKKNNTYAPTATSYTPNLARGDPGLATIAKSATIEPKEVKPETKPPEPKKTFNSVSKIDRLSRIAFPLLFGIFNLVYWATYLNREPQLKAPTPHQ
T2 sequence (P47870 whole entry): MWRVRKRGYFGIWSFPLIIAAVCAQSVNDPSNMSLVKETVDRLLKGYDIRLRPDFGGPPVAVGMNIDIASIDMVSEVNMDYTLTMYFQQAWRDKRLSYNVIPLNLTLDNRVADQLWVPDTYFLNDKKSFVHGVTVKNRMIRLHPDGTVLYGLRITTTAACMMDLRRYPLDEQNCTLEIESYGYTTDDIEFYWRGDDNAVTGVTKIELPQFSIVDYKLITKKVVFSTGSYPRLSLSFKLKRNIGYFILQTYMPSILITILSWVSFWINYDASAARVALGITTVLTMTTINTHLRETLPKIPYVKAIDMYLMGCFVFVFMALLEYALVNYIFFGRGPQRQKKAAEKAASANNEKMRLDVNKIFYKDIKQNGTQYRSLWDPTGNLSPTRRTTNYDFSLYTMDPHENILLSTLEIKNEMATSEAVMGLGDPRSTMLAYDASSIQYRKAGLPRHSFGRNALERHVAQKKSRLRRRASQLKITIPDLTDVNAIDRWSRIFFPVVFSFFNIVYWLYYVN
T2 sequence (P18507 whole entry): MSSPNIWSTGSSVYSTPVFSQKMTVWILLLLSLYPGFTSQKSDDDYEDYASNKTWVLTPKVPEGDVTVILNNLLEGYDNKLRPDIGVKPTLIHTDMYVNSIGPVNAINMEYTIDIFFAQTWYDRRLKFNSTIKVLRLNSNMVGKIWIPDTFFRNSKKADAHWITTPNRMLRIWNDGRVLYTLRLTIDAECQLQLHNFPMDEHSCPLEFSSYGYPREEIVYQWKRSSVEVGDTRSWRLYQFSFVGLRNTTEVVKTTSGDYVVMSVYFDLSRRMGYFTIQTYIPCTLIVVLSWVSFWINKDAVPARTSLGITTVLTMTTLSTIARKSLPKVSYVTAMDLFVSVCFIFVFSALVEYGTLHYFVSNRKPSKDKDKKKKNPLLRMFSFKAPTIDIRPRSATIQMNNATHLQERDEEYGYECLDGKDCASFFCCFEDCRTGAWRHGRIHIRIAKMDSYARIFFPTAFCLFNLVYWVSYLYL

[26] = Clearance in Sprague-Dawley rat at 2 mg/kg, iv measured upto 24 hrs by LC-MS/MS analysis; assay type: ADME, organism-based; conditions: in vivo
[27] = AUC (0 to infinity) in beagle dog at 2 mg/kg, IM measured upto 24 hrs by LC-MS/MS analysis; assay type: ADME, organism-based, Canis lupus familiaris; conditions: in vivo

T1 sequence (P00747 97-580 limits assumed): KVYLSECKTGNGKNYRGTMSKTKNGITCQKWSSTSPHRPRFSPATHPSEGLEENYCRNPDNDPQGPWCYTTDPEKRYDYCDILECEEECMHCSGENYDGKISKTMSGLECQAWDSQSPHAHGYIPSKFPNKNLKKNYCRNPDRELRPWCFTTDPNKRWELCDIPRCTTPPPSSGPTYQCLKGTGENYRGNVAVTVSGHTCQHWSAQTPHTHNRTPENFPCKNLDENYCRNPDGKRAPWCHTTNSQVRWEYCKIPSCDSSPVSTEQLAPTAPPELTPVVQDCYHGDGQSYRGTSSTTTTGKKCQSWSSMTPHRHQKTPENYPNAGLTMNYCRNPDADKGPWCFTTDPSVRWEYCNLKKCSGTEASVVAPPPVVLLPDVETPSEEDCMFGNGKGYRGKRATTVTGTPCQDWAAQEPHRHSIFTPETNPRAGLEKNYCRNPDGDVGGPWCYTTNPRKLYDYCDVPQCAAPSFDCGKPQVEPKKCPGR
T1 sequence (P00747 581-810 limits assumed): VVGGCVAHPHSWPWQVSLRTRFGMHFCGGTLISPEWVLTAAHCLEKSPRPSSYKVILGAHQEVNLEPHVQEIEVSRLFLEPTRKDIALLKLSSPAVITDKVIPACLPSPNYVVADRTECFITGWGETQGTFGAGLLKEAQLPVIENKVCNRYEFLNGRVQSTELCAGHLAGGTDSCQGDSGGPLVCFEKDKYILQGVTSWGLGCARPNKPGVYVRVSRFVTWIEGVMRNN
Sequence of Tissue-type plasminogen activator (Rattus norvegicus) (P19637 whole entry): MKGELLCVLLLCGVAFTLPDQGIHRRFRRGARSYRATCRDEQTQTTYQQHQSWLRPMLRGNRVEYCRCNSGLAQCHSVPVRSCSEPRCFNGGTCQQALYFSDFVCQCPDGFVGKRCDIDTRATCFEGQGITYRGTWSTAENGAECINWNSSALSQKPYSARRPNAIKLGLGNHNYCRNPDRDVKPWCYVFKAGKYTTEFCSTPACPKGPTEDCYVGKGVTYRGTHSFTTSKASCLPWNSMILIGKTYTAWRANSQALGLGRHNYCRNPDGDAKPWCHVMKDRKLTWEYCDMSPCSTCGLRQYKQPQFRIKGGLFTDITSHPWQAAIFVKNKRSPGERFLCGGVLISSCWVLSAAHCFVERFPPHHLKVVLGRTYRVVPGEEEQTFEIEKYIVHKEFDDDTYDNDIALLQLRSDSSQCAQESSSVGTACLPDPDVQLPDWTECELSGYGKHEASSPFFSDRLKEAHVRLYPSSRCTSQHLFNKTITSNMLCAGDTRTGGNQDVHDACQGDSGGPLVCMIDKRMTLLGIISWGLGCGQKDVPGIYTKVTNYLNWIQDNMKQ
Sequence of Voltage-gated inwardly rectifying potassium channel KCNH2 (Q12809 whole entry): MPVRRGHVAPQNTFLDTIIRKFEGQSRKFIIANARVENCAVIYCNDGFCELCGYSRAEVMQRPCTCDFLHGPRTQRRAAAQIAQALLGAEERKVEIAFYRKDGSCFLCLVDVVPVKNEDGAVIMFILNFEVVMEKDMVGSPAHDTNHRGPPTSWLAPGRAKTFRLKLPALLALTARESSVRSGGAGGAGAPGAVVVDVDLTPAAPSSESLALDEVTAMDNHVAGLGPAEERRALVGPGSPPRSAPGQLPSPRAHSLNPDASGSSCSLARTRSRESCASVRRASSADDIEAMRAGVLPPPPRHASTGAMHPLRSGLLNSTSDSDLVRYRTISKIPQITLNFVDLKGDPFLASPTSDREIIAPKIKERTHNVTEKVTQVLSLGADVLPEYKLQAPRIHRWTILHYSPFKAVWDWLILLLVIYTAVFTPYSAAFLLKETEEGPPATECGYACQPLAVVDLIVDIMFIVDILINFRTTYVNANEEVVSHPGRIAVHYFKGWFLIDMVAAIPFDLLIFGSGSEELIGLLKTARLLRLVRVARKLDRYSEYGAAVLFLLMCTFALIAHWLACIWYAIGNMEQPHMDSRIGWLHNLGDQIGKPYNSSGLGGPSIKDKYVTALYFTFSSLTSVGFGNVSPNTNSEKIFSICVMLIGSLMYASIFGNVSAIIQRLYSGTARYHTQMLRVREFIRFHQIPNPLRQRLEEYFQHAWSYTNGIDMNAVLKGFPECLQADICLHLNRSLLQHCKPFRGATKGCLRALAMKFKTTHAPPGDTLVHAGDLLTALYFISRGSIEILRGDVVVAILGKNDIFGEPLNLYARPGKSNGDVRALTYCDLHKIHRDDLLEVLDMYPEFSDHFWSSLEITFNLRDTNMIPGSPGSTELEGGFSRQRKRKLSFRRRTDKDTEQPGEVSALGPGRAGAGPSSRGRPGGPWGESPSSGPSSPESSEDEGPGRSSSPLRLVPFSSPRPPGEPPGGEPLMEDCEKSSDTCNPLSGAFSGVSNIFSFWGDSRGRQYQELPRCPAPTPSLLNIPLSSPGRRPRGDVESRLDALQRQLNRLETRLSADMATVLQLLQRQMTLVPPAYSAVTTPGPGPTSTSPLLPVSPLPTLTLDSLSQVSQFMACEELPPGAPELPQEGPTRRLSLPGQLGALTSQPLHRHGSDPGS
Sequence of Tissue-type plasminogen activator (Homo sapiens) (P00750 36-562 limits assumed): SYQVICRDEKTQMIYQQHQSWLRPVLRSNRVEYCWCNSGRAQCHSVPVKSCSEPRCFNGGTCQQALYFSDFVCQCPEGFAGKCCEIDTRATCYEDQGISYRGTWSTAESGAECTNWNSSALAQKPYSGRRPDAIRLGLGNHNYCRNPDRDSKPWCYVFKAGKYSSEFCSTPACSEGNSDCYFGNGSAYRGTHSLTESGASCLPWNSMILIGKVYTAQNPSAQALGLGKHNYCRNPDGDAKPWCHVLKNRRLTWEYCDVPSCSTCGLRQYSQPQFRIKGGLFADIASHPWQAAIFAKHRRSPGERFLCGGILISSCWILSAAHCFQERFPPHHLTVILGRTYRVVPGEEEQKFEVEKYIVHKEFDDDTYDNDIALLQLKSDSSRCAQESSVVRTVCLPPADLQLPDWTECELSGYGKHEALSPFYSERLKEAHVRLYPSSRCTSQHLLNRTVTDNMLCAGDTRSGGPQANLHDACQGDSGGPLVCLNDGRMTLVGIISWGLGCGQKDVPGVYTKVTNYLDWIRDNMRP
Sequence of Glycine receptor (alpha-1/beta) (P23415 whole entry): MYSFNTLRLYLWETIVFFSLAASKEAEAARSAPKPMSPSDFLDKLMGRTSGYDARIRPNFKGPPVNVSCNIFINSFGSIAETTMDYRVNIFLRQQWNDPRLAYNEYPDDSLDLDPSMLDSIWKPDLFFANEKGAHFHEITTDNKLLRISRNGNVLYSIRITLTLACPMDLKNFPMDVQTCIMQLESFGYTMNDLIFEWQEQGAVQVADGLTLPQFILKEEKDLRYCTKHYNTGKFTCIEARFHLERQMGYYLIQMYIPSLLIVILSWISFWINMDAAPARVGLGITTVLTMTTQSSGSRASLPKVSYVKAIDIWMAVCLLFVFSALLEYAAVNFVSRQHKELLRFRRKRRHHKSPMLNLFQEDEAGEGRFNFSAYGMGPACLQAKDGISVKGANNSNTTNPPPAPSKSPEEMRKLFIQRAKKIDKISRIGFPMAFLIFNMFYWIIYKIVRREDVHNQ
Sequence of Glycine receptor (alpha-1/beta) (P48167 whole entry): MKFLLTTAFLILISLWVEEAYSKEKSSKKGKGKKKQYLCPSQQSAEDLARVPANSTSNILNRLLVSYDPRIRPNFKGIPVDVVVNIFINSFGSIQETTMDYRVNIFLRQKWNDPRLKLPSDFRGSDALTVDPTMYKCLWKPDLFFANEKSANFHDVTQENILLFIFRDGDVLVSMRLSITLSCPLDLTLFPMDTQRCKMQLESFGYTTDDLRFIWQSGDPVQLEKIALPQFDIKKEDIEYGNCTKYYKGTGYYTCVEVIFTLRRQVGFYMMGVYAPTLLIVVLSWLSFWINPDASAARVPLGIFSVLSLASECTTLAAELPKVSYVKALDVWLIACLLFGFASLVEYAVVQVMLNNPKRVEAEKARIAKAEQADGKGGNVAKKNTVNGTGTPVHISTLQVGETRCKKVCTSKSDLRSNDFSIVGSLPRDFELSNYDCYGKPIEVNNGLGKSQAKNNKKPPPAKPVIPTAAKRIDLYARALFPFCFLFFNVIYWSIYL

SMILES: Cl.O=P(O)(O)c1ccc2c(n1)C(N1CCS(=O)(=O)CC1)CNC2 (mixture of isomers)
- Ratio IC50 (Blood): 0.25

SMILES: CN(C)S(=O)(=O)NC(=O)c1ccc2c(n1)CCNC2.Cl
- Ratio IC50 (Blood): 0.99

SMILES: Cl.O=P(O)(O)c1ccc2c(n1)CC(Cc1ccccc1)NC2 (mixture of isomers)
- Ratio IC50 (Blood): 0.75

SMILES: Cl.O=P(O)(O)c1ccc2c(n1)C(N1CC[S+]([O-])CC1)CNC2 (mixture of isomers)
- Ratio IC50 (Blood): 0.17

SMILES: Cl.O=P(O)(O)c1ccc2c(n1)C(N1CCSCC1)CNC2 (mixture of isomers)
- Ratio IC50 (Blood): 0.21

SMILES: Cl.O=P(O)(O)c1ccc2c(n1)CCNC2
- half-life [1]: 2.41 h
- IC90 (Homo sapiens): 4.71 µM
- IC50 [2]: 1.48 µM
- NOAEL at 336 h [3]: 70 mg/kg
- AUC(0-inf) [4]: 11600 ng·h/mL
- NOAEL at 336 h [5]: 60 mg/kg
- Vd [6]: 0.473 L/kg
- t1/2 [7]: 11.1 h
- Kd (Plasminogen [8]): 21.1 µM
- MTD [9]: > 500 mg/kg
- half-life [10]: 2.53 h
- inhibition [11]: Active
- Vdss [12]: 0.96 L/kg
- AUC [13]: 16600 ng·h/mL
- Activity (Rattus norvegicus [14]): Active
- IC50 [15]: > 300 µM
- Activity [16]: Non-toxic
- IC50 [17]: 540 µM
- Activity [18]: Non-toxic
- Activity (Rattus norvegicus [19]): Active
- IC90 [20]: 1.01 µM
- MTD [21]: > 500 mg/kg
- IC50 (Plasminogen [22]): 8.42 µM
- half-life [23]: 12.8 h
- AUC(0-inf) [24]: 14200 ng·h/mL
- IC50 [25]: 782 µM
- Ratio IC50 (Blood): 0.19
- clearance [26]: 2.64 mL/min/kg
- AUC(0-inf) [27]: 16500 ng·h/mL

SMILES: Cl.NS(=O)(=O)c1ccc2c(n1)CCNC2
- Ratio IC50 (Blood): 4.26

SMILES: Cl.O=P(O)(O)c1ccc2c(n1)CC(CCc1ccccc1)NC2 (mixture of isomers)
- Ratio IC50 (Blood): 0.2

SMILES: Cl.O=P(O)(c1ccccc1)c1ccc2c(n1)CCNC2
- Ratio IC50 (Blood): 0.2

SMILES: CC(C)C1Cc2nc(P(=O)(O)O)ccc2CN1.Cl (mixture of isomers)
- Ratio IC50 (Blood): 0.14

SMILES: Cl.O=P(O)(CCc1ccccc1)c1ccc2c(n1)CCNC2
- Ratio IC50 (Blood): 0.36

SMILES: Cl.O=c1[nH]c(-c2ccc3c(n2)CCNC3)no1
- Ratio IC50 (Blood): 0.86

SMILES: CC(C)(C)CC1Cc2nc(P(=O)(O)O)ccc2CN1.Cl (mixture of isomers)
- Ratio IC50 (Blood): 0.19

SMILES: CC(C)(C)CCC1Cc2nc(P(=O)(O)O)ccc2CN1.Cl (mixture of isomers)
- Ratio IC50 (Blood): 0.1

SMILES: Cl.NC(=O)NC(=O)c1ccc2c(n1)CCNC2
- Ratio IC50 (Blood): >10

SMILES: Cl.c1cc2c(nc1-c1nnn[nH]1)CCNC2
- Ratio IC50 (Blood): 0.9

SMILES: Cl.O=C(O)c1cc2c(s1)CNCC2
- Ratio IC50 (Blood): 1.36

SMILES: Cl.O=C(O)c1nc2c(s1)CNCC2
- Ratio IC50 (Blood): 0.94
